Residues, ends and D or L forms follow the SMILES beside them.
Tests used:
[1] = cited from earlier work; for Sweetness potency: commonly accepted potency figures, weight basis
[2] = cited from earlier work
[3] = assay type: physicochemical
Text: Traditionally, the beverage industry makes certain carbonated beverages by first making concentrated syrup and then diluting the syrup with water at the time and place of making the beverage. The dilution ratio in such beverages is often 1:5; meaning one part syrup is mixed with five parts water. The beverage often is carbonated at the time of being bottled or otherwise packaged. For any ingredient to be incorporated into such a 1:5 syrup, the solubility of the ingredient in the syrup must be at least six times higher than its desired concentration in the finished beverage. […] It would be advantageous, therefore, to develop improved methods of incorporating rebaudioside D into an aqueous solution.

Compound | Sweetness potency [1] | Water solubility (in words) [2] | further results
CC1=CC(=O)[N-]S(=O)(=O)O1.[K+] [Acesulfame-K] | 200 times as sweet as sugar |  | 
COC(=O)[C@H](Cc1ccccc1)NC(=O)[C@@H](N)CC(=O)O [Aspertame] (H-Asp-Phe-OMe) | 200 times as sweet as sugar |  | 
C[C@H](CC[C@@H](O[C@@H]1O[C@H](CO[C@@H]2O[C@H](CO)[C@@H](O)[C@H](O)[C@H]2O)[C@@H](O)[C@H](O)[C@H]1O[C@@H]1O[C@H](CO)[C@@H](O)[C@H](O)[C@H]1O)C(C)(C)O)[C@H]1CC[C@@]2(C)[C@@H]3CC=C4[C@@H](CC[C@H](O[C@@H]5O[C@H](CO[C@@H]6O[C@H](CO)[C@@H](O)[C@H](O)[C@H]6O)[C@@H](O)[C@H](O)[C@H]5O)C4(C)C)[C@]3(C)[C@H](O)C[C@]12C [Mogroside V] | 100-300 times as sweet as sugar |  | 
COc1ccc(CCC(=O)c2c(O)cc(O[C@@H]3O[C@H](CO)[C@@H](O)[C@H](O)[C@H]3O[C@@H]3O[C@@H](C)[C@H](O)[C@@H](O)[C@H]3O)cc2O)cc1O [Neohesperidin dihydrochalcone] | 300 times as sweet as sugar |  | 
COC(=O)[C@H](Cc1ccccc1)NC(=O)[C@H](CC(=O)O)NCCC(C)(C)C [Neotame] | 8,000 times as sweet as sugar |  | 
C=C1C[C@@]23CC[C@H]4[C@@](C)(CCC[C@@]4(C)C(=O)O[C@@H]4O[C@H](CO)[C@@H](O)[C@H](O)[C@H]4O)[C@@H]2CC[C@]1(O[C@@H]1O[C@H](CO)[C@@H](O)[C@H](O[C@@H]2O[C@H](CO)[C@@H](O)[C@H](O)[C@H]2O)[C@H]1O[C@@H]1O[C@H](CO)[C@@H](O)[C@H](O)[C@H]1O)C3 [Rebaudioside A, rebaudioside A] | 150-300 times as sweet as sugar | more soluble than stevioside | Solubility in aqueous solution ([2]; room temperature): at least 3000 ppm; Sweetness relative to sucrose ([1]; background statement): approximately 200 times sweeter than sucrose
C=C1C[C@@]23CC[C@H]4[C@@](C)(CCC[C@@]4(C)C(=O)O[C@@H]4O[C@H](CO)[C@@H](O)[C@H](O)[C@H]4O[C@@H]4O[C@H](CO)[C@@H](O)[C@H](O)[C@H]4O)[C@@H]2CC[C@]1(O[C@@H]1O[C@H](CO)[C@@H](O)[C@H](O[C@@H]2O[C@H](CO)[C@@H](O)[C@H](O)[C@H]2O)[C@H]1O[C@@H]1O[C@H](CO)[C@@H](O)[C@H](O)[C@H]1O)C3 [Rebaudioside D, rebaudioside D] | 180-200 times as sweet as sugar | low | Stable solubility in aqueous solution [3]: no more than 450 ppm
O=C1NS(=O)(=O)c2ccccc21 [Saccharine] | 300 times as sweet as sugar |  | 
C=C1C[C@@]23CC[C@H]4[C@@](C)(CCC[C@@]4(C)C(=O)O[C@@H]4O[C@H](CO)[C@@H](O)[C@H](O)[C@H]4O)[C@@H]2CC[C@]1(O[C@@H]1O[C@H](CO)[C@@H](O)[C@H](O)[C@H]1O[C@@H]1O[C@H](CO)[C@@H](O)[C@H](O)[C@H]1O)C3 [Stevioside, stevioside] | 100-250 times as sweet as sugar | only sparingly soluble in water | 
OC[C@H]1O[C@H](O[C@]2(CCl)O[C@H](CCl)[C@@H](O)[C@@H]2O)[C@H](O)[C@@H](O)[C@H]1Cl [Sucralose] | 600 times as sweet as sugar |  | 

— patent publication US20200315232A1, “Method to Improve Dispersibility of a Material Having Low Solubility in Water” (PepsiCo, Inc., priority 2012, published 2020)
